Patent US20230220443A1, “CHARACTERIZATION OF S-ADENOSYL-L-METHIONINE-CONSUMING ENZYMES WITH 1-STEP EZ-MTASE: A UNIVERSAL COUPLED-ASSAY” (ALBERT EINSTEIN COLLEGE OF MEDICINE, priority 2017, published 2023)

Columns and labels:
CePRMT5 = target: T1, CePRMT5 (Caenorhabditis elegans, UniProt P46580); experiment: 1-Step EZ-MTase UV-based coupled assay, CePRMT5 kinetics; format: biochemical; details: for Km / kcat: pH=7.60, co-substrate saturating, 4 μM TM0936, 263 nm (282 nm for 8-aza-SAM); for catalytic efficiency: saturating H4 peptide
T1 construct: made in house
T1 sequence (P46580 1-734): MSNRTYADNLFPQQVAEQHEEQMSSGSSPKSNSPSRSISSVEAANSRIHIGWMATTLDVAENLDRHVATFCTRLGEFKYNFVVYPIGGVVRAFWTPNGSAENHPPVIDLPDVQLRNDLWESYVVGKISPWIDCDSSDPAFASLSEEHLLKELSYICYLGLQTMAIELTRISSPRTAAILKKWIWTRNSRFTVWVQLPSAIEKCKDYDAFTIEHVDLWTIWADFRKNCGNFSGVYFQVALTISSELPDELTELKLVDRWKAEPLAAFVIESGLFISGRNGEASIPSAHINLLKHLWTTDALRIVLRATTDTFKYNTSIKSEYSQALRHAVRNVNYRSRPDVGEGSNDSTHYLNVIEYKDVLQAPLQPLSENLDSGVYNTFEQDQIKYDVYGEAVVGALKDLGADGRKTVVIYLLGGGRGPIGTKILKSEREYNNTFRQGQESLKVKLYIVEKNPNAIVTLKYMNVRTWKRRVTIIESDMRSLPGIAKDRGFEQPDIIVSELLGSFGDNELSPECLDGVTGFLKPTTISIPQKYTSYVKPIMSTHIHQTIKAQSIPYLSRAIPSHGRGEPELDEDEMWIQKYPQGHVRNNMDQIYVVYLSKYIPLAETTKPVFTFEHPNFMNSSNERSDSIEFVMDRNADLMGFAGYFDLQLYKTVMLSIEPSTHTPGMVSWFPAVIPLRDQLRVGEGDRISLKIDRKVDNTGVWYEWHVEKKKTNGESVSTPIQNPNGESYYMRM
Experimental: The 250-μL reaction mixtures from a same row contained 50 mM phosphate buffer pH=7.60, 1 mM βME, 10% glycerol, 4 μM coupling deaminase TM0936, 300 nM CePRMT5 and various peptide concentrations (5-180 μM; in the first well, peptide acceptor was omitted to account for background signal—natural decomposition of SAM). The methyltransfer reactions started upon addition of SAM (25 μM saturating final concentration) and absorbance was recorded.
The 250-μL reaction mixtures from a same row contained 50 mM phosphate buffer pH=7.60, 1 mM βME, 10% glycerol, 4 μM coupling deaminase TM0936, 300 nM CePRMT5 and various SAM concentrations (2.35-47.0 μM). […] Initial rates were first corrected for background signal, then plotted against SAM concentrations and fitted to the Morrison kinetic model to yield corresponding kinetic parameters.
(§1) Kinetic behavior for 8-aza-SAM against MTases (acceptor sat.)—Briefly, kinetic parameters were determined at 20° C. in a UV-Star 96-well flat bottom plate (Greiner Bio-One, #655801) by continuous monitoring of absorbance at 282 nm using a SpectraMax M5 instrument (Molecular Devices). As for SAM experiments, the measurements consisted of two experimental subsets: MTase reactions (both 8-aza-SAM and acceptor added) and MTase blanks (8-aza-SAM was added without acceptor to account for natural 8-aza-SAM decomposition). The 250-μL (60-μL) reaction mixtures from a same row contained 50 mM phosphate buffer pH=7.60 (7.80), 1 mM βME, 10% glycerol (5% glycerol, 100 μM MgCl2), 4 μM coupling deaminase TM0936, either 1.5 μM CePRMT5 or 402 nM TbPRMT7 (or 610 nM GsSDMT) and various 8-aza-SAM concentrations. […] Initial rates were first corrected for background signal, then plotted against 8-aza-SAM concentrations and fitted to the Michaelis-Menten equation to yield corresponding kinetic parameters.

TbPRMT7 = target: T2, TbPRMT7 (Trypanosoma brucei brucei, UniProt Q582G4); experiment: 1-Step EZ-MTase UV-based coupled assay, TbPRMT7 kinetics (incl. ionic strength); format: biochemical; details: for Km / kcat: pH=7.60, 25 mM phosphate, co-substrate saturating
T2 construct: made in house
T2 sequence (Q582G4 whole entry): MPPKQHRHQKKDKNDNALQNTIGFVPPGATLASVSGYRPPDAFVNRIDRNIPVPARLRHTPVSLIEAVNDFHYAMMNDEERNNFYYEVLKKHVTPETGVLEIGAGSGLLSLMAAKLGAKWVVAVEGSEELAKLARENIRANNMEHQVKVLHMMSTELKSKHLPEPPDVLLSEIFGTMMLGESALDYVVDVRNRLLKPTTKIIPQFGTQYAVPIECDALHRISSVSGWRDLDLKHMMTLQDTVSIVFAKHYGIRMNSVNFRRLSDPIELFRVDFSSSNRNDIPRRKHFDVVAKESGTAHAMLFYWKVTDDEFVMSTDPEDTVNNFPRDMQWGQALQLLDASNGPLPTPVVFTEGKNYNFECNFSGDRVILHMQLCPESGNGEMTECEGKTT
Experimental: Briefly, the 250-μL reaction mixtures from a same row contained 25 mM phosphate buffer pH=7.60, 1 mM βME, 10% glycerol, 4 μM coupling deaminase TM0936, 1.0 μM TbPRMT7 and various peptide concentrations (16.6-243.3 μM; in the first well, peptide acceptor was omitted to account for background signal—natural decomposition of SAM). Reactions started upon addition of SAM (25.8 μM saturating final concentration) and absorbance was recorded. […] Fit to the Michaelis-Menten model (Eq. 5) provided corresponding kinetic parameters:
Briefly, the measurements consisted of two experimental subsets: MTase reactions (both SAM and peptide added) and MTase blanks (SAM was added without peptide to account for natural SAM decomposition). The 250-μL reaction mixtures from a same row contained 25 mM phosphate buffer pH=7.60, 1 mM βME, 10% glycerol, 4 μM coupling deaminase TM0936, 402 nM TbPRMT7 and various SAM concentrations (1.53-20.0 μM). […] Initial rates were first corrected for background signal, then plotted against SAM concentrations and fitted to the Morrison kinetic model to yield corresponding kinetic parameters.
as §1, with “parameters. The kinetic data from CePRMT5 were fit to the following Eq. 6 to reflect substrate inhibition observed at higher 8-aza-SAM concentration:” for “parameters.”
Experiments were conducted following TbPRMT7 protocol above. Briefly, the 250-μL reaction mixtures from a same row contained either 25, 50, 75 or 100 mM phosphate buffer pH=7.60, 1 mM βME, 10% glycerol, 4 μM coupling deaminase TM0936, 1.0 μM TbPRMT7 and various peptide concentrations (16.6-243.3 μM; in the first well, peptide acceptor was omitted to account for background signal—natural decomposition of SAM). Reactions started upon addition of SAM (25.8 μM saturating final concentration) and absorbance was recorded. […] The four fits to the Michaelis-Menten equation (kcat fixed at 29 h^−1) provided corresponding Km values and established impact of ionic strength onto this kinetic parameter.

Row | Structure (SMILES) | substrate inhibition constant (Ks / Kf) (CePRMT5; 282 nm, pH=7.60, H4(1-20) 104 μM) [µM] | Km (CePRMT5) [µM] | kcat (CePRMT5) [s⁻¹] | catalytic efficiency (CePRMT5) [M⁻¹ s⁻¹] | substrate inhibition (inhibitory behavior of the analog) (TbPRMT7) | Km (TbPRMT7) [µM] | kcat (TbPRMT7) [s⁻¹]
1 | C[S+](CC[C@H](N)C(=O)O)C[C@H]1O[C@@H](n2nnc3c(N)ncnc32)[C@H](O)[C@@H]1O (stereo partly drawn) [8-aza-SAM, S-8-aza-adenosyl-L-methionine] | 67 ± 42 | 35 ± 19 | 0.00417 ± 0.0017 | 120 | not observed | 15.3 ± 0.7 | 0.00639 ± 0.00011
2 | C[S+](CC[C@H](N)C(=O)O)C[C@H]1O[C@@H](n2cnc3c(N)ncnc32)[C@H](O)[C@@H]1O (stereo partly drawn) [SAM, S-adenosyl-L-methionine] |  | 6.8 ± 0.3 | 0.00886 ± 0.00014 | 1300 |  | 1.1 ± 0.2 | 0.00619 ± 0.00017
